From patent US9056840B2, “Coelenterazine analogues and coelenteramide analogues” (JNC Corporation, priority 2010, dated 2015)

How the values were obtained:
Assay type in all cases: physicochemical
[1] = target: T1, apoaequorin (Aequorea victoria, UniProt P07164); experiment: Fluorescence spectra of semi-synthetic gFP (coelenteramide analogue + apoaequorin, EDTA); conditions: 10 mM EDTA buffer, excitation 337 nm
T1 construct: purchased Chisso Corporation
Experimental: Semi-synthetic gFP was prepared from recombinant apoaequorin and coelenteramide analogues as follows. In 1 ml of 50 mM Tris-HC 1 (pH 7.6) containing 10 mM EDTA and 1 mM DTT, apoaequorin (0.2 mg) was mixed with 8 μl of a coelenteramide analogue (1 μg/μl in anhydrous methanol). The mixture was allowed to stand 4° C. for 16 hours to prepare semi-synthetic gFP-like protein (hereinafter sometimes simply referred to as “semi-synthetic gFP”).
(§1) The fluorescence spectra were determined as follows. For coelenteramide analogue alone, the fluorescence was measured according to the procedures for semi-synthetic gFP and semi-synthetic BFP described in EXAMPLES 11 and 12, except for in the absence of apoaequorin, using 1 ml of 50 mM Tris-HCl (pH 7.6) containing 10 mM EDTA and 1 mM DTT or 1 ml of 50 mM Tris-HCl (pH 7.6) containing 10 mM CaCl2 and 1 mM DTT, in the final concentration of coelenteramide analogue adjusted to 8 μg/ml. The fluorescence spectra were measured at 25° C. in a quartz cell (10 mm light path length) using a Jasco FP-6500 spectrofluorometer (excitation wavelength: 337 nm, emission/excitation bandwidth: 3 nm; response: 0.5 sec, scan speed, 1000 nm/min).

[2] = target: T1, apoaequorin; experiment: Fluorescence spectra of semi-synthetic BFP (coelenteramide analogue + apoaequorin, CaCl2); conditions: 10 mM CaCl2 buffer, excitation 337 nm
Experimental: Semi-synthetic gFP was prepared from recombinant apoaequorin and coelenteramide analogues as follows. In 1 ml of 50 mM Tris-HC 1 (pH 7.6) containing 10 mM CaCl2 and 1 mM DTT, apoaequorin (0.2 mg) was mixed with 8 μl of a coelenteramide analogue (1 μg/μl in anhydrous methanol). The mixture was allowed to stand at 4° C. for 16 hours to prepare semi-synthetic BFP-like protein (hereinafter sometimes simply referred to as “semi-synthetic BFP”).
as §1

[3] = Fluorescence spectra of coelenteramide analogue alone (absence of apoaequorin); conditions: analogue alone 8 μg/ml; for Coelenteramide (Buffer containing CaCl2) Fluorescence intensity (rlu) / Coelenteramide (Buffer containing CaCl2) Maximum fluorescence wavelength λmax (nm): 10 mM CaCl2 buffer pH 7.6, excitation 337 nm; for Coelenteramide (EDTA-containing buffer) Fluorescence intensity (rlu) / Coelenteramide (EDTA-containing buffer) Maximum fluorescence wavelength λmax (nm): 10 mM EDTA buffer pH 7.6, excitation 337 nm
Experimental: as §1

T1 sequence (P07164 other isoform, or with tags, fused parts or gaps with the stated changes): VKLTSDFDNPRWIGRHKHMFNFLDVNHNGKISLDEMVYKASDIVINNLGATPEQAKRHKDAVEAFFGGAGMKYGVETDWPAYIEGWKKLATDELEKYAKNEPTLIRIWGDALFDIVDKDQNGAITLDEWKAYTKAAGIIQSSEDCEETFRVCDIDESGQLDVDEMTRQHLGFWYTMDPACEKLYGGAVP

O=C(Cc1ccc(O)cc1)Nc1ncc(-c2ccc(O)cc2)nc1-c1ccccc1 [Compound 4a, 2-(4-Hydroxyphenyl)-N-[5-(4-hydroxyphenyl)-3-phenylpyrazin-2-yl]acetamide]
Semi-synthetic gFP (EDTA-containing buffer) Fluorescence intensity (rlu) [1]: 82.9 rlu | Semi-synthetic gFP (EDTA-containing buffer) Maximum fluorescence wavelength λmax (nm) [1]: 521.5 nm | Fluorescence intensity [2]: 148.9 rlu | Semi-synthetic BFP (Buffer containing CaCl2) Maximum fluorescence wavelength λmax (nm) [2]: 507.5 nm | Coelenteramide (Buffer containing CaCl2) Fluorescence intensity (rlu) [3]: 2.0 rlu | Coelenteramide (Buffer containing CaCl2) Maximum fluorescence wavelength λmax (nm) [3]: 467.5 nm | Coelenteramide (EDTA-containing buffer) Fluorescence intensity (rlu) [3]: 1.9 rlu | Coelenteramide (EDTA-containing buffer) Maximum fluorescence wavelength λmax (nm) [3]: 471.0 nm

O=C(Cc1ccc(O)cc1)Nc1ncc(-c2ccc(O)cc2)nc1/C=C/c1ccccc1 [Compound 4b]
Semi-synthetic gFP (EDTA-containing buffer) Fluorescence intensity (rlu) [1]: 43.2 rlu | Semi-synthetic gFP (EDTA-containing buffer) Maximum fluorescence wavelength λmax (nm) [1]: 530.0 nm | Fluorescence intensity [2]: 52.7 rlu | Semi-synthetic BFP (Buffer containing CaCl2) Maximum fluorescence wavelength λmax (nm) [2]: 544.5 nm | Coelenteramide (Buffer containing CaCl2) Fluorescence intensity (rlu) [3]: 9.4 rlu | Coelenteramide (Buffer containing CaCl2) Maximum fluorescence wavelength λmax (nm) [3]: 494.5 nm | Coelenteramide (EDTA-containing buffer) Fluorescence intensity (rlu) [3]: 7.1 rlu | Coelenteramide (EDTA-containing buffer) Maximum fluorescence wavelength λmax (nm) [3]: 495.5 nm

C=C(c1ccccc1)c1nc(-c2ccc(O)cc2)cnc1NC(=O)Cc1ccc(O)cc1 [Compound 4c, 2-(4-Hydroxyphenyl)-N-[5-(4-hydroxyphenyl)-3-(1-phenylvinyl)pyrazin-2-yl]acetamide]
Semi-synthetic gFP (EDTA-containing buffer) Fluorescence intensity (rlu) [1]: 32.1 rlu | Semi-synthetic gFP (EDTA-containing buffer) Maximum fluorescence wavelength λmax (nm) [1]: 499.0 nm | Fluorescence intensity [2]: 25.6 rlu | Semi-synthetic BFP (Buffer containing CaCl2) Maximum fluorescence wavelength λmax (nm) [2]: 492.5 nm | Coelenteramide (Buffer containing CaCl2) Fluorescence intensity (rlu) [3]: 12.4 rlu | Coelenteramide (Buffer containing CaCl2) Maximum fluorescence wavelength λmax (nm) [3]: 471.0 nm | Coelenteramide (EDTA-containing buffer) Fluorescence intensity (rlu) [3]: 11.8 rlu | Coelenteramide (EDTA-containing buffer) Maximum fluorescence wavelength λmax (nm) [3]: 475.5 nm

O=C(Cc1ccc(O)cc1)Nc1ncc(-c2ccc(O)cc2)nc1-c1cccc2ccccc12 [Compound 4d, 2-(4-Hydroxyphenyl)-N-[5-(4-hydroxyphenyl)-3-(naphthalen-1-yl)pyrazin-2-yl]acetamide]
Semi-synthetic gFP (EDTA-containing buffer) Fluorescence intensity (rlu) [1]: 58.8 rlu | Semi-synthetic gFP (EDTA-containing buffer) Maximum fluorescence wavelength λmax (nm) [1]: 504.5 nm | Fluorescence intensity [2]: 98.3 rlu | Semi-synthetic BFP (Buffer containing CaCl2) Maximum fluorescence wavelength λmax (nm) [2]: 487.0 nm | Coelenteramide (Buffer containing CaCl2) Fluorescence intensity (rlu) [3]: 12.9 rlu | Coelenteramide (Buffer containing CaCl2) Maximum fluorescence wavelength λmax (nm) [3]: 463.5 nm | Coelenteramide (EDTA-containing buffer) Fluorescence intensity (rlu) [3]: 12.4 rlu | Coelenteramide (EDTA-containing buffer) Maximum fluorescence wavelength λmax (nm) [3]: 462.5 nm

O=C(Cc1ccc(O)cc1)Nc1ncc(-c2ccc(O)cc2)nc1-c1ccc2ccccc2c1 [Compound 4e, 2-(4-Hydroxyphenyl)-N-[5-(4-hydroxyphenyl)-3-(naphthalen-2-yl)pyrazin-2-yl]acetamide]
Semi-synthetic gFP (EDTA-containing buffer) Fluorescence intensity (rlu) [1]: 72.6 rlu | Semi-synthetic gFP (EDTA-containing buffer) Maximum fluorescence wavelength λmax (nm) [1]: 487.0 nm | Fluorescence intensity [2]: 85.6 rlu | Semi-synthetic BFP (Buffer containing CaCl2) Maximum fluorescence wavelength λmax (nm) [2]: 492.5 nm | Coelenteramide (Buffer containing CaCl2) Fluorescence intensity (rlu) [3]: 28.6 rlu | Coelenteramide (Buffer containing CaCl2) Maximum fluorescence wavelength λmax (nm) [3]: 478.0 nm | Coelenteramide (EDTA-containing buffer) Fluorescence intensity (rlu) [3]: 28.9 rlu | Coelenteramide (EDTA-containing buffer) Maximum fluorescence wavelength λmax (nm) [3]: 478.0 nm

O=C(Cc1ccc(O)cc1)Nc1ncc(-c2ccc(O)cc2)nc1-c1cc2ccccc2s1 [Compound 4h, N-[3-(Benzo[b]thiophen-2-yl)-5-(4-hydroxyphenyl)pyrazin-2-yl]-2-(4-hydroxyphenyl) acetamide]
Fluorescence intensity [2]: 153.3 rlu | Semi-synthetic BFP (Buffer containing CaCl2) Maximum fluorescence wavelength λmax (nm) [2]: 427.0 nm | Coelenteramide (Buffer containing CaCl2) Fluorescence intensity (rlu) [3]: 101.2 rlu | Coelenteramide (Buffer containing CaCl2) Maximum fluorescence wavelength λmax (nm) [3]: 426.5 nm | Coelenteramide (EDTA-containing buffer) Fluorescence intensity (rlu) [3]: 115.2 rlu | Coelenteramide (EDTA-containing buffer) Maximum fluorescence wavelength λmax (nm) [3]: 426.5 nm

O=C(Cc1ccc(O)cc1)Nc1ncc(-c2ccc(O)cc2)nc1-c1ccc(-c2cccs2)s1 [Compound 4m, N-[3-(2,2′-Bithiophen-5-yl)-5-(4-hydroxyphenyl)pyrazin-2-yl]-2-(4-hydroxyphenyl) acetamide]
Semi-synthetic gFP (EDTA-containing buffer) Fluorescence intensity (rlu) [1]: 163.8 rlu | Semi-synthetic gFP (EDTA-containing buffer) Maximum fluorescence wavelength λmax (nm) [1]: 482.5 nm | Fluorescence intensity [2]: 182.4 rlu | Semi-synthetic BFP (Buffer containing CaCl2) Maximum fluorescence wavelength λmax (nm) [2]: 457.5 nm

CN(C)c1ccc(-c2nc(-c3ccc(O)cc3)cnc2NC(=O)Cc2ccc(O)cc2)cc1 [Compound 4n, N-[3-{4-(Dimethylamino)phenyl}-5-(4-hydroxyphenyl)pyrazin-2-yl]-2-(4-hydroxyphenyl)acetamide]
Semi-synthetic gFP (EDTA-containing buffer) Fluorescence intensity (rlu) [1]: 151.5 rlu | Semi-synthetic gFP (EDTA-containing buffer) Maximum fluorescence wavelength λmax (nm) [1]: 485.5 nm | Fluorescence intensity [2]: 231.3 rlu | Semi-synthetic BFP (Buffer containing CaCl2) Maximum fluorescence wavelength λmax (nm) [2]: 487.5 nm

O=C(Cc1ccc(O)cc1)Nc1ncc(-c2ccc(O)cc2)nc1Br [Compound 4t, N-[3-Bromo-5-(4-hydroxyphenyl)pyrazin-2-yl]-2-(4-hydroxyphenyl)acetamide]
Semi-synthetic gFP (EDTA-containing buffer) Fluorescence intensity (rlu) [1]: 22.0 rlu | Semi-synthetic gFP (EDTA-containing buffer) Maximum fluorescence wavelength λmax (nm) [1]: 482.5 nm | Coelenteramide (Buffer containing CaCl2) Fluorescence intensity (rlu) [3]: 12.1 rlu | Coelenteramide (Buffer containing CaCl2) Maximum fluorescence wavelength λmax (nm) [3]: 482.0 nm | Coelenteramide (EDTA-containing buffer) Fluorescence intensity (rlu) [3]: 11.8 rlu | Coelenteramide (EDTA-containing buffer) Maximum fluorescence wavelength λmax (nm) [3]: 480.5 nm

O=C(Nc1ccc(O)cc1)Nc1ncc(-c2ccc(O)cc2)nc1Cc1ccccc1 [Compound 4u, 1-[3-Benzyl-5-(4-hydroxyphenyl)pyrazin-2-yl]-3-(4-hydroxyphenyl)urea]
Semi-synthetic gFP (EDTA-containing buffer) Fluorescence intensity (rlu) [1]: 11.4 rlu | Semi-synthetic gFP (EDTA-containing buffer) Maximum fluorescence wavelength λmax (nm) [1]: 494.5 nm | Coelenteramide (Buffer containing CaCl2) Fluorescence intensity (rlu) [3]: 0.9 rlu | Coelenteramide (Buffer containing CaCl2) Maximum fluorescence wavelength λmax (nm) [3]: 445.5 nm | Coelenteramide (EDTA-containing buffer) Fluorescence intensity (rlu) [3]: 0.7 rlu | Coelenteramide (EDTA-containing buffer) Maximum fluorescence wavelength λmax (nm) [3]: 440.5 nm

O=C(Nc1ncc(-c2ccc(O)cc2)nc1Cc1ccccc1)c1ccc(O)cc1 [Compound 4x, N-[3-Benzyl-5-(4-hydroxyphenyl)pyrazin-2-yl]-4-hydroxybenzamide]
Fluorescence intensity [2]: 36.8 rlu | Semi-synthetic BFP (Buffer containing CaCl2) Maximum fluorescence wavelength λmax (nm) [2]: 485.0 nm | Coelenteramide (Buffer containing CaCl2) Fluorescence intensity (rlu) [3]: 1.4 rlu | Coelenteramide (Buffer containing CaCl2) Maximum fluorescence wavelength λmax (nm) [3]: 450.0 nm | Coelenteramide (EDTA-containing buffer) Fluorescence intensity (rlu) [3]: 1.3 rlu | Coelenteramide (EDTA-containing buffer) Maximum fluorescence wavelength λmax (nm) [3]: 449.0 nm

O=C(Nc1ncc(-c2ccc(O)cc2)nc1Cc1ccccc1)c1cccc(O)c1 [Compound 4y, N-[3-Benzyl-5-(4-hydroxyphenyl)pyrazin-2-yl]-3-hydroxybenzamide]
Semi-synthetic gFP (EDTA-containing buffer) Fluorescence intensity (rlu) [1]: 44.8 rlu | Semi-synthetic gFP (EDTA-containing buffer) Maximum fluorescence wavelength λmax (nm) [1]: 492.0 nm | Coelenteramide (Buffer containing CaCl2) Fluorescence intensity (rlu) [3]: 1.4 rlu | Coelenteramide (Buffer containing CaCl2) Maximum fluorescence wavelength λmax (nm) [3]: 457.0 nm | Coelenteramide (EDTA-containing buffer) Fluorescence intensity (rlu) [3]: 1.3 rlu | Coelenteramide (EDTA-containing buffer) Maximum fluorescence wavelength λmax (nm) [3]: 456.0 nm
